Data: publication PMC5365251, “Biophysical assay for tethered signaling reactions reveals tether-controlled activity for the phosphatase SHP-1” (Science Advances, 2017)

What was measured:
PEG12-ITIM peptide = experiment: Solution phosphatase assay (inorganic phosphate release); assay type: biochemical, mouse; conditions: PEG12-ITIM 10 μM, pH 7.4, 10°C, BIOMOL Green; fit of progress curves
Experimental: Purified SHP-1 was mixed with PEG12-ITIM peptide at 10 μM, in 10 mM Hepes (pH 7.4), 150 mM NaCl, 3 mM EDTA, 0.005% Surfactant P20, and 1 mM dithiothreitol (Sigma). Temperature was regulated to 10°C with a thermocycler heat block, and the production of inorganic phosphate was measured at the indicated time points using BIOMOL Green (Enzo Life Sciences).
The resulting progress curves (Fig. 1B) were fit using a standard mathematical model ([20]) based on the following reaction scheme F+S^*⇌koffkonCkcat⇀F+S where F is the phosphatase, S* is the phosphorylated peptide substrate, S is the unphosphorylated peptide product, and C is the intermediate enzyme-substrate complex. This reaction scheme corresponds to the following coupled ODEs ∂F/∂t=−konFS*+(koff+kcat)C∂S*/∂t=−konFS*+koffC∂C/∂t=konFS*−(koff+kcat)C∂S/∂t=kcatC with the following conservation equations for the enzyme and substrate, FT=E+CST=S*+C+S where FT is the initial SHP-1 concentration and ST is the initial concentration of phosphorylated substrate. A common assumption for in vitro solution-based enzyme assays is that the enzyme-substrate complex (C) changes on a […] time scale compared to the time scale of product formation (that is, ∂C/∂t ≈ 0). Using this quasi–steady-state approximation, which is valid when E ≪ S + Km ([46], [47]), we find C = FTS^∗/(Km + S^∗). […] The initial condition is S(t = 0) = 0. […]

PEG28-ITIM = experiment: SPR of SHP-1 injected over immobilised PEG28-ITIM: tethered/solution catalysis and reach (MPDPDE fit); assay type: biochemical, mouse
Experimental: A construct expressing murine SHP-1 with an N-terminal 6× His tag was provided by M. H. Brown. Mutation of the SH2 domains was performed using a quick-change strategy. The mutations introduced were R30K and R33E for the N-terminal SH2 domain mutant and R136K for the C-terminal SH2 domain mutant previously shown to result in loss of binding ([6]). All peptides were ordered from PeptideSynthetics and were certified to be >95% pure. Peptides sequences were derived from the membrane-proximal ITIM sequence of mouse LAIR-1 receptor.
Experiments were performed on a Biacore 3000 instrument (GE Healthcare Life Sciences). All experiments were performed at 10°C and with a buffer flow rate of 10 μl/min. The buffer used was Hepes-buffered saline (HBS-EP; GE Healthcare Life Sciences), which contained 10 mM Hepes (pH 7.4), 150 mM NaCl, 3 mM EDTA, and 0.005% Surfactant P20.
A CM5 sensorchip was coupled with streptavidin to near saturation (typically between 4000 and 7000 RU) using the amine coupling kit (GE Healthcare Life Sciences) as described previously ([42]). After streptavidin was coupled, biotinylated peptides were injected to give the indicated concentrations in experimental flow cells, and excess biotin-binding sites were blocked with biotin in HBS-EP. The molar ratio of peptide to streptavidin was kept below 1:1 to ensure that peptide immobilization was random and not clustered on the tetravalent streptavidin molecules. Reference flow cells were treated with buffer and then blocked with biotin; pilot experiments using unphosphorylated control peptides in reference flow cells were indistinguishable from buffer-treated reference flow cells when injected with SHP-1. The chip surface was then conditioned with 5 × 5-min injections of HBS-EP. SHP-1 protein in HBS-EP with 1 mM dithiothreitol was then injected over reference and experimental flow cells in series for 5 min at the indicated concentrations. All SPR data were converted from the reference-subtracted data (in resonance units) to fraction bound by dividing the resonance units by the theoretical maximum resonance units expected if the experimental flow cell was saturated with bound SHP-1.
To determine the concentration of peptide in the assays, we first needed a conversion factor between the resonance units and the mass of peptide at the chip surface. We determined this conversion factor by injecting four concentrations of SHP-1 over a control flow cell on a CM5 chip and plotting the mass of SHP-1 injected against the raw resonance unit change. We repeated this on seven flow cells across four sensor chips to get an average slope of 149 ± 15 RU per g/liter (±SEM). This constant, together with the molecular weight of the peptide, was used to convert between the resonance units of peptides immobilized and the molar concentration at the chip surface. For example, 48.5 RU of PEG28-ITIM (molecular weight, 3221) was immobilized to obtain [peptide] = 97.1 μM (Fig. 2A).
From the MPDPDE model–simulated SPR traces, one would predict that the kcat*(solution) (fig. S4, G and H) and L (fig. S4F) are likely to be very sensitive to small systematic errors in the SPR trace at longer time scales. Nonspecific binding and baseline drift are two well-known sources of such systemic errors that can produce artifacts at long time scales (see fig. S6A for examples). To exclude data affected by these artifacts, we propose a simple quality control check that greatly improves the accuracy of estimating L, kcat*(tethered) , and kcat*(solution) . As a measure of the signal-to-noise ratio at long time points, we took the resonance units 20 s after the injection was completed (noise) and divided it by the resonance units 20 s before the injection finished (signal). […] Data that had evidence of significant artifact were excluded from the study based on this criterion (red data points in fig. S6B). […]

SHP-1: murine SHP-1 tyrosine phosphatase with an N-terminal 6× His tag, expressed in E. coli
k*cat (= kcat/Km), overall catalytic rate in solution (PEG12-ITIM peptide): 6800 M⁻¹ s⁻¹ | L (reach parameter), SH2 variants (PEG28-ITIM; SHP-1 variants over PEG28-ITIM, average fit Fig. 6B: WT n = 15, N-SH2 mutant n = 3, C-SH2 mutant n = 9): 23.0 nm | share of time spent in open active conformation in solution (PEG28-ITIM; assuming complete open transition on SH2 binding, kcat*(solution) = 0.05 kcat*(tethered)): 5% | k*cat (tethered) (PEG28-ITIM; average of all experiments Fig. 4C, n = 15, SEM printed ± 1.3 × 10^-2, wild-type SHP-1, PEG28-ITIM, 10°C, HBS-EP pH 7.4): 11800 M⁻¹ s⁻¹ | L (reach parameter) (PEG28-ITIM; average of all experiments Fig. 4C, n = 15, SEM ± 0.46, wild-type SHP-1, PEG28-ITIM, 10°C, HBS-EP pH 7.4): 23 nm | k*cat (solution) (PEG28-ITIM; average of all experiments Fig. 4C, n = 15, SEM ± 1.15 × 10^-4, wild-type SHP-1, PEG28-ITIM, 10°C, HBS-EP pH 7.4): 603 M⁻¹ s⁻¹ | increase in tethered over solution catalytic rate (allosteric activation) (PEG28-ITIM; wild-type SHP-1, PEG28-ITIM, kcat*(tethered) versus kcat*(solution)): 20 fold
